Data published in US20060205787A1, “Methods and compositions using 4-amino-2-(3-methyl-2,6-dioxopiperidin-3-yl)-isoindole-1,3-dione” (priority 2005, published 2006).

A melting point of 111 to 113 °C was found for `CC1(N2C(=O)c3cccc(NC(=O)CN)c3C2=O)CCC(=O)NC1=O.Cl` (stereo not drawn) in this work. A melting point of over 260 °C was found for `C[C@]1(N2C(=O)c3cccc(NC(=O)CN)c3C2=O)CCC(=O)NC1=O.Cl` in this work. A melting point of 235 to 237 °C was found for `C[C@]1(N2C(=O)c3cccc(N)c3C2=O)CCC(=O)NC1=O` [Example 5.1.11, (3S)-4-Amino-2-(3-Methyl-2,6-Dioxopiperidin-3-yl)-Isoindole-1,3-Dione] in this work.
